The values below are quoted from earlier work in patent publication US20110144117A1, “Pharmaceutical Dosage Form Containing Tetrahydrobiopterin” (OrPha Swiss GmbH, priority 2008, published 2011).

The structures appear in SMILES notation.

The conditions of data set [1]: in pure water.
The subject of data set [2] is patient with a dihydrobiopterin deficiency. The note with it: single dose, patient with dihydrobiopterin deficiency (Niederwieser et al.).
The subject of data set [3] is patients exhibiting mutations in the PAH gene. The note with it: dietary supplementation, patients with mutations in the PAH gene (Kure et al.).

On to `C[C@H](O)C(=O)C1=Nc2c(nc(N)[nH]c2=O)NC1` [L-sepiapterin], for which the solubility in data set [1] is on record as 0.17 g/100 g H2O. Besides, the symptoms of hyperphenylalaninemia entry in data set [2] is on record as “transiently disappeared”. For `CC(O)C(O)C1CNc2nc(N)[nH]c(=O)c2N1` (stereo not drawn) [tetrahydrobiopterin, 5,6,7,8-tetrahydro-biopterin], in data set [3], the “phenylalanine blood plasma concentration” value is “reduces”.
